Reference: publication PMC6688371, “Effect of the inhaled PDE4 inhibitor CHF6001 on biomarkers of inflammation in COPD” (Respiratory Research, 2019)

Legend:
[1] = Stability of CHF6001 in human plasma (bioanalytical validation); format: in vitro ADME
Procedure: Effect of CHF6001 on inflammatory biomarkers – Additional file 1 to –90C. The plasma concentration of CHF6001 was evaluated using a LC-MS/MS method following solid phase extraction. Validation procedures again followed those outlined for the analysis of biomarkers above. The bioanalytical method wa s found to be linear over the calibration range of 10 to 20,000 pg/mL. The precision and accuracy of the method was found to be within the target limits of within 20% at the lower limit of quantification 10 pg/mL and within 15% at all other concentrations.
The recovery of CHF6001 from human plasma was consistent across the analytical range , with no significant matrix effects. […]
for up to 24 h at the sample processing temperature (nominally +20C), a fter storage for 184 days in a freezer (nominally –80C) and after four freeze-thaw cycles at nominally – 80C / +20C. Therefore the method was considered to be suitable for measuring concentrations of CHF6001 in human plasma samples from regulatory studies.
The study was approved by two centralised ethics committees on behalf of the sites:
• UK: Health Research Authority, North West, Greater Manchester South Research Ethics Committee, Manchester (approval reference 16/NW/0553).
• Germany: Ethics Committee of Hesse Medical Association, Frankfurt am Main (approval reference FF 98/2016).
Patients had to meet all the following inclusion criteria to be eligible for enrolment into the […]
1. Written informed consent obtained prior to any study-related procedures;
2. Male or female aged ≥40 years;
3. A female was eligible to enter the study if they were of non-childbearing potential, i.e. physiologically incapable of becoming pregnant (e.g. postmenopausal women defined as being amenorrhoeic for ≥12 consecutive months without an alternative medical cause. If indicated, as per Investigator’s request, post -menopausal status

patients with COPD = test: Safety and tolerability (adverse events, vital signs, ECG, laboratory data)
Source text: The Safety population is all randomised patients who received at least one dose of study medication.

With `CS(=O)(=O)Nc1ccc(C(=O)O[C@@H](Cc2c(Cl)c[n+]([O-])cc2Cl)c2ccc(OC(F)F)c(OCC3CC3)c2)cc1OCC1CC1` [CHF6001] the “Storage time found stable in human plasma” value ([1]; freezer (nominally –80C)) was 184 days, the “Freeze-thaw cycles found stable in human plasma” value ([1]; nominally –80C / +20C) was “four” and the “Time found stable in human plasma” value ([1]; sample processing temperature (nominally +20C)) was “up to 24 h”. The Adverse events (patients with COPD; 800 μg BID (N = 58)) was 30 (51.7) patients (%), the “Adverse events leading to study drug withdrawal” value (patients with COPD; 800 μg BID (N = 58)) was 3 (5.2) patients (%) and the “Adverse events with a fatal outcome” value (patients with COPD; 800 μg BID (N = 58)) was 0 patients (%). For the same molecule, the Back pain (patients with COPD; 800 μg BID (N = 58)) was 4 (6.9) patients (%), the Cough (patients with COPD; 800 μg BID (N = 58)) was 1 (1.7) patients (%) and the Diarrhoea (patients with COPD; 800 μg BID (N = 58)) was 3 (5.2) patients (%). The Drug-related adverse events (patients with COPD; 800 μg BID (N = 58)) was 1 (1.7) patients (%), the “Drug-related adverse events: Dry mouth” value (patients with COPD; 800 μg BID (N = 58)) was 0 patients (%) and the “Drug-related adverse events: Sleep disorders” value (patients with COPD; 800 μg BID (N = 58)) was 1 (1.7) patients (%). For the same molecule, the “Drug-related serious adverse events” value (patients with COPD; 800 μg BID (N = 58)) was 0 patients (%), the Fatigue (patients with COPD; 800 μg BID (N = 58)) was 1 (1.7) patients (%) and the Headache (patients with COPD; 800 μg BID (N = 58)) was 1 (1.7) patients (%). For the same molecule, the Nasopharyngitis (patients with COPD; 800 μg BID (N = 58)) was 5 (8.6) patients (%), the Oropharyngeal pain (patients with COPD; 800 μg BID (N = 58)) was 3 (5.2) patients (%) and the Serious adverse events (patients with COPD; 800 μg BID (N = 58)) was 2 (3.4) patients (%). The Severe adverse events (patients with COPD; 800 μg BID (N = 58)) was 0 patients (%), the Tension headache (patients with COPD; 800 μg BID (N = 58)) was 1 (1.7) patients (%) and the Toothache (patients with COPD; 800 μg BID (N = 58)) was 3 (5.2) patients (%). For the same molecule, the “Patients reporting gastrointestinal adverse events” value (patients with COPD; 800 μg BID, seven patients) was 12.1%, the Adverse events (patients with COPD; 1600 μg BID (N = 59)) was 33 (55.9) patients (%) and the “Adverse events leading to study drug withdrawal” value (patients with COPD; 1600 μg BID (N = 59)) was 2 (3.4) patients (%). For the same molecule, the “Adverse events with a fatal outcome” value (patients with COPD; 1600 μg BID (N = 59)) was 0 patients (%), the Back pain (patients with COPD; 1600 μg BID (N = 59)) was 1 (1.7) patients (%) and the Cough (patients with COPD; 1600 μg BID (N = 59)) was 3 (5.1) patients (%). For the same molecule, the Diarrhoea (patients with COPD; 1600 μg BID (N = 59)) was 1 (1.7) patients (%), the Drug-related adverse events (patients with COPD; 1600 μg BID (N = 59)) was 1 (1.7) patients (%) and the “Drug-related adverse events: Dry mouth” value (patients with COPD; 1600 μg BID (N = 59)) was 1 (1.7) patients (%). The “Drug-related adverse events: Sleep disorders” value (patients with COPD; 1600 μg BID (N = 59)) was 0 patients (%), the “Drug-related serious adverse events” value (patients with COPD; 1600 μg BID (N = 59)) was 0 patients (%) and the Fatigue (patients with COPD; 1600 μg BID (N = 59)) was 3 (5.1) patients (%). For the same molecule, the Headache (patients with COPD; 1600 μg BID (N = 59)) was 7 (11.9) patients (%), the Nasopharyngitis (patients with COPD; 1600 μg BID (N = 59)) was 6 (10.2) patients (%) and the Oropharyngeal pain (patients with COPD; 1600 μg BID (N = 59)) was 2 (3.4) patients (%). The Serious adverse events (patients with COPD; 1600 μg BID (N = 59)) was 2 (3.4) patients (%), the Severe adverse events (patients with COPD; 1600 μg BID (N = 59)) was 1 (1.7) patients (%) and the Tension headache (patients with COPD; 1600 μg BID (N = 59)) was 3 (5.1) patients (%). For the same molecule, the Toothache (patients with COPD; 1600 μg BID (N = 59)) was 1 (1.7) patients (%), the “Patients reporting gastrointestinal adverse events” value (patients with COPD; 1600 μg BID, six patients) was 10.2% and the “Haematology or biochemistry data, between treatments” value (patients with COPD; 800 or 1600 μg BID and placebo) was “no major differences”. The “Systolic or diastolic blood pressure, heart rate or Fridericia's corrected QT interval vs placebo” value (patients with COPD; either dose (800 or 1600 μg BID)) was “no differences”.
